The results in this text go back to publication PMC10681007, “Targeted Degradation of XIAP is Sufficient and Specific to Induce Apoptosis in MYCN-overexpressing High-risk Neuroblastoma” (Cancer Research Communications, 2023).

The structures appear in SMILES notation. Read-outs that look alike come from different tables or passages of the source. Starred links: 1 amine or outer side, 2 acyl side, 3 side chain; linkers in the order of their positions; H or OH if unused. Positions of bridges follow the written chain, without caps; N, C: chain ends. Non-standard residues stand in square brackets, D forms with d. Residues, ends and D or L forms follow the SMILES beside them. Chains are numbered I, II in the order given. Hexamethylenediamine = C(CCCN[*:2])CCN[*:1]; Dip = N[C@H](C(=O)O)C(c1ccccc1)c1ccccc1; Chg = N[C@H](C(=O)O)C1CCCCC1; NMeA = CN[C@@H](C)C(=O)O

In assay [1] the test system is neuroblastoma cells across the panel of cell lines. The assay is described as follows: Cell viability, IC50 range across the panel. The assay is classed as cell-based, Human. The following applies: range over cell lines, doses 0–100 µmol/L, viability every 24 for 72 hours; read-out: IC50 against neuroblastoma cells across the panel of cell lines. The procedure:
Cell viability was measured in real time using RealTime-Glo MT Cell Viability Assay as according to manufacturer's instructions from Promega. Cells were seeded at 1 × 10^4 cells per well and treated with a range of doses of indicated antagonists, followed by continuous bioluminescence reading every 24 hours for 3 days using luminescent plate reader, Varioskan ([…] software). IC50 was determined using GraphPad Prism software. To determine their efficacy in neuroblastoma, a panel of neuroblastoma cell lines including neuroblastoma patient-derived cell lines and noncancerous normal tissue-derived cell lines were treated with increasing doses of each antagonist (0-100 μmol/L), followed by real-time measurement of cell viability every 24 for 72 hours. […] Supplementary Table S2; Fig. 2A). […] Fig. 2A).

The subject of a further assay is THLE3 (liver origin). The assay is described as follows: RealTime-Glo MT cell viability assay, noncancerous normal cells. Type of assay: cell-based, Human. The procedure:
(§1) Cell viability was measured in real time using RealTime-Glo MT Cell Viability Assay as according to manufacturer's instructions from Promega. Cells were seeded at 1 × 10^4 cells per well and treated with a range of doses of indicated antagonists, followed by continuous bioluminescence reading every 24 hours for 3 days using luminescent plate reader, Varioskan (SkanIT software). IC50 was determined using GraphPad Prism software.
(§2) To determine their efficacy in neuroblastoma, a panel of neuroblastoma cell lines including neuroblastoma patient-derived cell lines and noncancerous normal tissue-derived cell lines were treated with increasing doses of each antagonist (0–100 µmol/L), followed by real-time measurement of cell viability every 24 for 72 hours.
(§3) To evaluate this, noncancerous normal tissue-derived cell lines THLE3 and HS5 were utilized to evaluate toxicity and tolerability.

Another assay has as its system HS5 (bone marrow origin). Described as above. Type of assay: cell-based, Human. The procedure:
as §1, §2, §3

In the next assay the target is T1, XIAP (NanoLuc-XIAP) (Homo sapiens, UniProt P98170).
T1 construct: host or cells: BE(2)-C and KELLY human neuroblastoma cells
T1 sequence (P98170 whole entry): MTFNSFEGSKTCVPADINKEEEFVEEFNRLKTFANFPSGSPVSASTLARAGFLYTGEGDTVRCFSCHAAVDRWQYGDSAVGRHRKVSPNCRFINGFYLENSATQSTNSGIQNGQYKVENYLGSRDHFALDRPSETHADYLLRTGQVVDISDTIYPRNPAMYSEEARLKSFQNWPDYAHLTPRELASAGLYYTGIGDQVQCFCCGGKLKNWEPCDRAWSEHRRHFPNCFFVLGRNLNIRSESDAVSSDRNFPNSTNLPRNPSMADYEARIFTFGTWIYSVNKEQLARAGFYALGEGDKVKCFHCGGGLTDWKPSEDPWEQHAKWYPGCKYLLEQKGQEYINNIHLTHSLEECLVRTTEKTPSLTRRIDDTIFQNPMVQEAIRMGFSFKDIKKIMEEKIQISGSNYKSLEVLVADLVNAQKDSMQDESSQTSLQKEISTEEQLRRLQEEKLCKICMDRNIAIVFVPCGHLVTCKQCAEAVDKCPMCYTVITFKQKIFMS
Kind of assay: NanoBRET XIAP target engagement assay. The assay is classed as binding. The following applies: NanoBRET tracer displacement, read-out: apparent intracellular affinity to XIAP (EC50). On the procedure: To better understand the mechanisms by which these compounds target XIAP in high-risk neuroblastoma, binding interactions between the antagonists and XIAP were first determined in BE(2)-C and KELLY cells using a NanoBRET quantitative target engagement assay. […] As the BRET signal was not completely abolished even at saturating A4 concentrations, NMR was conducted to further examine the binding interaction between A4 and XIAP (Supplementary Fig. S2A and S2B).
FIGURE 3 Binding and degradation of XIAP by A4 is necessary for targeting high-risk neuroblastoma cells. […] BRET signal was measured at 2 hours after treatment using a Tecan Infinite 200 Pro equipped with NanoBRET dual-filters (donor 460 nm and acceptor 618 nm) and determined via the formula (BRET ratio = values at 618 nm/values at 460 nm). […] Cells were treated with increasing dose of A4 or BV6 and luminescence was measured continuously in real time for 2 hours. Luminescence values were normalized to DMSO vehicle control and degradation profiles were generated using GraphPad Prism. Values were expressed as mean ± SD of three independent experiments conducted in duplicates. […] BRET signal was measured every 5 minutes for 6 hours after treatment using a Tecan equipped with NanoBRET dual-filters (donor 460 nm and acceptor 618 nm) and determined via the formula (BRET ratio = values at 618 nm/values at 460 nm). […]
(In general: BRET reads energy transfer from a luciferase to a nearby fluorophore.)

The term IC50 denotes the concentration at which inhibition is half-maximal. Broadly, the EC50 is the concentration that produces a half-maximal response.

Consider `CN[C@@H](C)C(=O)N[C@H](C(=O)N1CCC[C@H]1C(=O)N[C@H](C(=O)NCCCCCCNC(=O)[C@@H](NC(=O)[C@@H]1CCCN1C(=O)[C@@H](NC(=O)[C@H](C)NC)C1CCCCC1)C(c1ccccc1)c1ccccc1)C(c1ccccc1)c1ccccc1)C1CCCCC1` [BV6] (I: H-[NMeA][Chg]P[Dip] / II: H-[NMeA][Chg]P[Dip]; linker I:C-II:C via Hexamethylenediamine), for which the half-maximal inhibitory concentration (IC50) in assay [1] was 3 to 20 µM; in the assay on THLE3 (liver origin) (THLE3, 24 hours) it was 11.3 µM; with THLE3 (liver origin) (THLE3, 48 hours), 6.8 µM; in the assay on THLE3 (liver origin) (THLE3, 72 hours) it was 5.2 µM; with HS5 (bone marrow origin) (HS5, 24 hours) it was 6.1 µM; with HS5 (bone marrow origin) (HS5, 48 hours), 4.4 µM. For the same compound, the midpoint of inhibition with HS5 (bone marrow origin) (HS5, 72 hours), the IC50, lay at 3.6 µM. For the same compound, the EC50 on XIAP (NanoLuc-XIAP) (BE(2)-C cells) is 0.21 µM; at XIAP (NanoLuc-XIAP) (KELLY cells), 0.3 µM.
